Measurements as given in ChEMBL document CHEMBL3044741, “Synthesis of novel biologically active methylene derivatives of sydnones” (Med Chem Res, 2013).
Values after ≈ are worked out from the molar mass of the structure shown.

Key:
[1] = Selectivity index, ratio of CC50 for human MT4 cells to IC50 for HIV2 ROD; format: functional
[2] = Cytotoxicity against human MT4 cells by MTT assay; format: cell-based
[3] = Selectivity index, ratio of CC50 for human MT4 cells to IC50 for HIV1 3B; format: functional
[4] = tested on: Human immunodeficiency virus 2; experiment: Antiviral activity against HIV2 ROD infected in MT4 cells assessed as inhibition of virus-induced cytopathogenicity by MTT assay; format: functional, organism-based; details: Human immunodeficiency virus 2, ISOLATE ROD
[5] = tested on: Human immunodeficiency virus 1; experiment: Antiviral activity against HIV1 3B infected in MT4 cells assessed as inhibition of virus-induced cytopathogenicity by MTT assay; format: functional, organism-based; details: Human immunodeficiency virus 1, 3B
Aspergillus niger [6] = experiment: Antifungal activity against Aspergillus niger MTCC 282; format: functional
Aspergillus clavatus [7] = experiment: Antifungal activity against Aspergillus clavatus MTCC 1323; format: functional
Candida albicans [8] = experiment: Antifungal activity against Candida albicans MTCC 227; format: functional
Aspergillus clavatus [9] = experiment: Antifungal activity against Aspergillus clavatus MTCC 1323 at 250 ug/ml after 74 hrs by Kirby-Bauer method; format: functional; details: for zone of inhibition at 250 µg/mL: MTCC 1323, 74 h, read-out: IZ
Pseudomonas aeruginosa [10] = experiment: Antibacterial activity against Pseudomonas aeruginosa MTCC 424 after 24 hrs by broth dilution method; format: functional; details: MTCC 424, 24 h
Streptococcus pyogenes [11] = experiment: Antibacterial activity against Streptococcus pyogenes MTCC 442 after 24 hrs by broth dilution method; format: functional; details: MTCC 442, 24 h
Escherichia coli [12] = experiment: Antibacterial activity against Escherichia coli MTCC 443 after 24 hrs by broth dilution method; format: functional; details: MTCC 443, 24 h
Staphylococcus aureus [13] = experiment: Antibacterial activity against Staphylococcus aureus MTCC 96 after 24 hrs by broth dilution method; format: functional; details: MTCC 96, 24 h
Pseudomonas aeruginosa [14] = experiment: Antibacterial activity against Pseudomonas aeruginosa MTCC 424 at 250 ug/ml after 24 hrs by Kirby-Bauer method; format: functional; details: MTCC 424, 24 h, read-out: IZ
Escherichia coli [15] = experiment: Antibacterial activity against Escherichia coli MTCC 443 at 250 ug/ml after 24 hrs by Kirby-Bauer method; format: functional; details: MTCC 443, 24 h, read-out: IZ
Streptococcus pyogenes [16] = experiment: Antibacterial activity against Streptococcus pyogenes MTCC 442 at 250 ug/ml after 24 hrs by Kirby-Bauer method; format: functional; details: MTCC 442, 24 h, read-out: IZ
Staphylococcus aureus [17] = experiment: Antibacterial activity against Staphylococcus aureus MTCC 96 at 250 ug/ml after 24 hrs by Kirby-Bauer method; format: functional; details: MTCC 96, 24 h, read-out: IZ
Aspergillus niger [18] = experiment: Antifungal activity against Aspergillus niger MTCC 282 at 250 ug/ml after 74 hrs by Kirby-Bauer method; format: functional; details: MTCC 282, 74 h, read-out: IZ
Candida albicans [19] = experiment: Antifungal activity against Candida albicans MTCC 227 at 250 ug/ml after 74 hrs by Kirby-Bauer method; format: functional; details: MTCC 227, 74 h, read-out: IZ
Human alphaherpesvirus 3 [20] = experiment: Antiviral activity against thymidine kinase-deficient Varicella-zoster virus infected in HEL cells assessed as reduction in plaque formation; format: functional, organism-based; details: Human alphaherpesvirus 3, HEL
Human alphaherpesvirus 3 [21] = experiment: Antiviral activity against Varicella-zoster virus Oka expressing thymidine kinase infected in HEL cells assessed as reduction in plaque formation; format: functional, organism-based; details: Human alphaherpesvirus 3, strain Oka vaccine
[22] = Cytotoxicity against human HEL cells; format: cell-based
Cytomegalovirus [23] = experiment: Antiviral activity against Cytomegalovirus Davis in HEL cells assessed as reduction in plaque formation; format: functional, organism-based; details: Human betaherpesvirus 5, Davis
[24] = Cytotoxicity against human HEL cells assessed as alteration in cell morphology; format: cell-based
Cytomegalovirus [25] = experiment: Antiviral activity against Cytomegalovirus AD-169 infected in HEL cells assessed as reduction in plaque formation; format: functional, organism-based; details: Human betaherpesvirus 5, AD-169, HEL

Row | Compound | MIC (Aspergillus niger [6]) [µg/mL] | MIC (Aspergillus clavatus [7]) [µg/mL] | MIC (Candida albicans [8]) [µg/mL] | MIC (Pseudomonas aeruginosa [10]) [µg/mL] | MIC (Streptococcus pyogenes [11]) [µg/mL] | MIC (Escherichia coli [12]) [µg/mL] | MIC (Staphylococcus aureus [13]) [µg/mL] | zone of inhibition at 250 µg/mL (Pseudomonas aeruginosa [14]) [mm] | zone of inhibition at 250 µg/mL (Escherichia coli [15]) [mm] | zone of inhibition at 250 µg/mL (Streptococcus pyogenes [16]) [mm] | zone of inhibition at 250 µg/mL (Staphylococcus aureus [17]) [mm] | other results
1 | Nc1ccn([C@H]2CC[C@@H](CO)O2)c(=O)n1 [ZALCITABINE] | – | – | – | – | – | – | – | – | – | – | – | Ratio CC50/IC50 [1]: >108; CC50 [2]: > 20 µg/mL; Ratio CC50/IC50 [3]: >127; IC50 [4]: 0.19 µg/mL (≈ 0.9 µM); IC50 [5]: 0.16 µg/mL (≈ 0.758 µM)
2 | NYSTATIN | 100 | 100 | 100 | – | – | – | – | – | – | – | – | inhibition zone (IZ) (Aspergillus clavatus [9]): 26 mm
3 | CC1(C)S[C@@H]2[C@H](NC(=O)[C@H](N)c3ccccc3)C(=O)N2[C@H]1C(=O)O [AMPICILLIN] | – | – | – | 100 (≈ 286 µM) | 100 (≈ 286 µM) | 100 (≈ 286 µM) | 250 (≈ 715 µM) | 20 | 20 | 19 | 18 | –
4 | COC1=CC(=O)C[C@@H](C)[C@]12Oc1c(Cl)c(OC)cc(OC)c1C2=O [GRISEOFULVIN] | 100 (≈ 283 µM) | 100 (≈ 283 µM) | 100 (≈ 283 µM) | – | – | – | – | – | – | – | – | zone of inhibition at 250 µg/mL (Aspergillus niger [18]): 28 mm; zone of inhibition at 250 µg/mL (Aspergillus clavatus [9]): 24 mm; zone of inhibition at 250 µg/mL (Candida albicans [19]): 24 mm
5 | CCn1cc(C(=O)O)c(=O)c2cc(F)c(N3CCNCC3)cc21 [NORFLOXACIN] | – | – | – | 10 (≈ 31.3 µM) | 10 (≈ 31.3 µM) | 10 (≈ 31.3 µM) | 10 (≈ 31.3 µM) | 23 | 29 | 21 | 28 | –
6 | Cc1cn([C@H]2C[C@H](N=[N+]=[N-])[C@@H](CO)O2)c(=O)[nH]c1=O [ZIDOVUDINE] | – | – | – | – | – | – | – | – | – | – | – | Ratio CC50/IC50 [1]: >26731; CC50 [2]: > 25 µg/mL; Ratio CC50/IC50 [3]: >11587; IC50 [4]: 0.00094 µg/mL (≈ 0.00352 µM); IC50 [5]: 0.0022 µg/mL (≈ 0.00823 µM)
7 | CN1CCN(Cc2c([O-])on[n+]2-c2ccc(Cc3ccc(-[n+]4noc([O-])c4CN4CCN(C)CC4)cc3)cc2)CC1 | 1000 (≈ 1780 µM) | 500 (≈ 892 µM) | 500 (≈ 892 µM) | 250 (≈ 446 µM) | 62.5 (≈ 111 µM) | 250 (≈ 446 µM) | 500 (≈ 892 µM) | 19 | 19 | 22 | 16 | zone of inhibition at 250 µg/mL (Aspergillus niger [18]): 20 mm; zone of inhibition at 250 µg/mL (Aspergillus clavatus [9]): 23 mm; zone of inhibition at 250 µg/mL (Candida albicans [19]): 19 mm
8 | Cc1ccc(-[n+]2noc([O-])c2CN2CCN(CCOCCO)CC2)cc1 | – | – | – | 250 (≈ 690 µM) | 500 (≈ 1380 µM) | 500 (≈ 1380 µM) | 200 (≈ 552 µM) | 21 | 16 | 16 | 19 | –
9 | [O-]c1c[n+](-c2ccc(Cc3ccc(-[n+]4cc([O-])on4)cc3)cc2)no1 | – | – | – | – | – | – | – | – | – | – | – | EC50 (Human alphaherpesvirus 3 [20]): > 4 µg/mL; EC50 (Human alphaherpesvirus 3 [21]): > 4 µg/mL; CC50 [22]: 33.3 µg/mL (≈ 99 µM); EC50 (Cytomegalovirus [23]): > 20 µg/mL; MCC [24]: ≥ 20 µg/mL; EC50 (Cytomegalovirus [25]): > 4 µg/mL
